Assay results as given in US20230357159A1, “QUINOLINE COMPOUNDS AS SELECTIVE AND/OR DUAL MODULATORS OF BILE ACID RECEPTORS AND LEUKOTRIENE CYSTEINYL RECEPTORS” (PRECISION BIO-THERAPEUTICS S.R.L., priority 2020, published 2023).
≈ marks a conversion by molar mass, not a printed value.

Columns and labels:
FXR [1] = target: T1, FXR (Homo sapiens, UniProt Q96RI1); assay: FXR-mediated transactivation, luciferase reporter in HepG2 cells; assay type: cell-based; conditions: dose-response 0.1-75 µM, read-out: FXR ECso
T1 construct: expressed in transfected cells; host or cells: HepG2
T1 sequence (Q96RI1 1-486): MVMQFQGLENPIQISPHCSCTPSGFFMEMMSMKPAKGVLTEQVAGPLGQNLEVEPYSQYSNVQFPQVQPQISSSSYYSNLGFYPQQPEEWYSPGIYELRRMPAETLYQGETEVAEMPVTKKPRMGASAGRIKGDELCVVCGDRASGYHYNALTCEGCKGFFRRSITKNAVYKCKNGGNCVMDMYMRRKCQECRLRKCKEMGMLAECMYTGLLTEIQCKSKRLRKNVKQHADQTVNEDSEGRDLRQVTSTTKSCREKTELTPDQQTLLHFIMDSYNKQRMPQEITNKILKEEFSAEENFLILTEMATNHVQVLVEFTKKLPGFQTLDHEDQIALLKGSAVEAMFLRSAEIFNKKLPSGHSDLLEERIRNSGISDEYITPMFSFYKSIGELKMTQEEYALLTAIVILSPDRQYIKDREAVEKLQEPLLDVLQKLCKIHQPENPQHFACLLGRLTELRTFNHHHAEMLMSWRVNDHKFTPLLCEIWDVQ
T1 sequence (P19793 1-462 partner): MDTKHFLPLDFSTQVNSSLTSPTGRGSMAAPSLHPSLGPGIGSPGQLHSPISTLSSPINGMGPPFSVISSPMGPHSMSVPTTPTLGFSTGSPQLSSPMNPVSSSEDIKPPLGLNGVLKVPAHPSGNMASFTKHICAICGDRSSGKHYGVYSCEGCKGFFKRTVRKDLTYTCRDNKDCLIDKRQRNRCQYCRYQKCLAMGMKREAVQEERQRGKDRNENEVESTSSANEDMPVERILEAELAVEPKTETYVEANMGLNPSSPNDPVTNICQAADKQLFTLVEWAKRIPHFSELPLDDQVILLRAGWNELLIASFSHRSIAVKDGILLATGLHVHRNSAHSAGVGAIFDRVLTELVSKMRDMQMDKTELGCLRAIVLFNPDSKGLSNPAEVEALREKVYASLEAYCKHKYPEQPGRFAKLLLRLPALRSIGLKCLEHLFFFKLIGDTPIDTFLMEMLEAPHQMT

FXR [2] = target: T1, FXR; assay: as above; assay type: cell-based; conditions: compound at 10 microM, CDCA = 100%
Experimental: (§1) In this table, the activities of the compounds are compared with specific reference compounds, namely CDCA for FXR, TLCA for TGR5/GPBAR1, MK571 for CysLT1R. Each compound is tested at a concentration of 10 microM and the activity of the reference compounds is considered to be 100%.
For FXR-mediated transactivation, the HepG2 cells were transfected with 200 ng of the p(hsp27)-TK-LUC reporter vector containing the FXR response element (IR1) cloned from the heat shock protein 27 (hsp27) promoter, 100 ng of pSG5-FXR, 100 ng of pSG5-RXR and 100 of pGL4.70 (Promega, Madison WI), a vector encoding for the human Renilla gene. […]
(§2) Eighteen hours after stimulation, the cell lysates were used to assess Luciferase and Renilla activity by means of the Dual-Luciferase Reporter assay (E1980, Promega Madison WI). The luminescence was measured using the Glomax 20/20 luminometer (Promega, Madison WI) and the Luciferase activity was normalised with the Renilla activity.

human GPBAR1 = target: T2, human GPBAR1 (Homo sapiens, UniProt Q8TDU6); assay: GPBAR1-mediated transactivation, CRE-luciferase reporter in HEK-293T cells; assay type: cell-based; conditions: for GPBAR1 (% of activity compared to 10 µM TLCA): compound at 10 microM, TLCA = 100%
T2 construct: expressed in transfected cells; host or cells: HEK-293T
T2 sequence (Q8TDU6 1-330): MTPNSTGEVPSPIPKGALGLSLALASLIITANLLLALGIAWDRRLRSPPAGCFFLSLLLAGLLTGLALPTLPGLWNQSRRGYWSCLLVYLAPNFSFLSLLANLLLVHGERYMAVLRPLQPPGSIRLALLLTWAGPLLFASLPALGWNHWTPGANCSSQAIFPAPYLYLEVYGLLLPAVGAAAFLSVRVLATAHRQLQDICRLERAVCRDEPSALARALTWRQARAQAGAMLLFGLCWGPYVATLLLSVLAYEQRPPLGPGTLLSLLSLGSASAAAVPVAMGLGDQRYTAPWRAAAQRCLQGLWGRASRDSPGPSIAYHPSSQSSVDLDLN
Experimental: as §1
In another experimental set, 24 hours after transfection, the cells were stimulated with 50 µM of the derivatives CHIN in combination with 10 µM of CDCA or TLCA.
as §2

CysLT1R = target: T3, CysLT1R (Homo sapiens, UniProt Q9Y271); assay: CysLT1R antagonistic activity assay (Ca2+ fluorescence, 0.1 nM LTD4; Eurofins Cerep-Panlabs); assay type: cell-based; conditions: for IC50: antagonism of 0.1 nM LTD4, read-out: CysLTR1 ICso; for inhibition at 10 µM: read-out: CysLTR1 (% of inhibition compared to the compound MK571)
T3 construct: Eurofins Cerep-Panlabs (France)
T3 sequence (Q9Y271 1-337): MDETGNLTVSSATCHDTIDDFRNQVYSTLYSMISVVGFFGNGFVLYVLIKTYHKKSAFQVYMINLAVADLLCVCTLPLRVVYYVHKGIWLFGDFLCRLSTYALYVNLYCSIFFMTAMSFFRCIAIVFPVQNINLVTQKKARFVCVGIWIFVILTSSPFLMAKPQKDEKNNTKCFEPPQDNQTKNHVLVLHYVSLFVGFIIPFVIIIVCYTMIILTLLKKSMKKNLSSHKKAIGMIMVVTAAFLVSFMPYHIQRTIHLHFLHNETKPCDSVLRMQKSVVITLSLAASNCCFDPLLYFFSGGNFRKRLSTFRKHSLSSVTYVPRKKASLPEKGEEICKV
Experimental: as §1
The antagonistic activity assay was performed by Eurofins Cerep-Panlabs (France). […] The plates are then placed in a microplate reader (CellLux, PerkinElmer), which is used to add the compounds to be tested or the HBSS buffer and then after 5 min with a 0.1 nM LTD4 or HBSS buffer solution (used as control). The change in intensity and fluorescence that varies in proportion to the concentration of free Ca^2+ ion in the cytosol is measured.

S9 fraction = assay: Metabolic stability in vitro, S9 fraction; assay type: in vitro ADME; conditions: also phase II enzymes
Aqueous solubility = assay type: physicochemical; conditions: pH 7.4
wild-type C57/B16 mice = assay: Acetaminophen (APAP)-induced acute hepatitis in mice; assay type: in vivo; conditions: APAP 500 mg/kg oral gavage; 30 mg/kg orally 45 min after induction; 24 hours
Experimental: CHIN117 and the effect thereof in reducing acetaminophen-induced liver damage (APAP) are of particular interest. In the experimental set, acute hepatitis was induced in wild-type C57/B16 mice by administration of acetaminophen (APAP) at a concentration of 500 mg/kg via oral gavage. 45 minutes after induction of the disease, CHIN117 was administered at a concentration of 30 mg/kg orally. The mice were sacrificed 24 hours after induction of the disease and blood was taken and analysed for blood count and AST and ALT transaminase values.
The administration of the compound CHIN117 was able to alleviate the APAP-induced liver damage by reducing AST and ALT values by about 10-fold if compared to those recorded in the group of mice treated with APAP alone.

male C57BL/6 mice = assay: HFD-F diet murine model of NAFLD/NASH; assay type: in vivo; conditions: 30 mg/kg daily from day 7
Experimental: CHIN117 and the efficacy thereof in a murine model of chronic hepatitis induced by a high-fat diet are of particular interest. This murine model simulates NAFLD, which represents a rapidly growing epidemic in industrialised countries and has a very high cost for the health care system. In this model, the mice (male C57BL/6 mice) were fed a diet rich in lipids and cholesterol (2% cholesterol) and added fructose (3%) in water (HFD-F) for 60 days. CHIN117 was administered daily at a dose of 30 mg/kg starting on day 7. […] After eight weeks, the mice develop insulin resistance, as shown by the OGTT results (FIGS. 4E, F).
In addition, HFD-F indicates an increase in body mass index (BMI) and weight of the white adipose tissue of the epididymis (eWAT), of the brown adipose tissue (BAT) and of the liver (FIGS. 5C-I).

[3] = compound at 10 microM, MK571 = 100%, 0.1 nM LTD4

Row | Structure (SMILES) | FXR (% of activity compared to 10 µM CDCA) (FXR [2]) [%] | GPBAR1 (% of activity compared to 10 µM TLCA) (human GPBAR1) [%] | inhibition at 10 µM (CysLT1R; [3]) [%] | further results
1 | CC(C)Oc1cccc(OCc2ccc3ccccc3n2)c1 [CHIN111, 2-((3-isopropoxyphenoxy)methyl)quinoline] |  |  | 79 | 
2 | CCC(C)COc1cccc(OCc2ccc3ccccc3n2)c1 (stereo not shown) [CHIN114, 2-((3-(2-methylbutoxy)phenoxy)methyl)quinoline] |  |  | 15 | 
3 | COC(=O)c1cccc(-c2ccc(OCc3ccc4ccccc4n3)cc2)c1 [CHIN116, Methyl 4′-(quinolin-2-ylmethoxy)-[1,1′-biphenyl]-3-carboxylate] | 11.14 | 56.91 | 21 | 
4 | OCc1cccc(-c2ccc(OCc3ccc4ccccc4n3)cc2)c1 [CHIN118] |  |  |  | CysLTR1 (% of inhibition compared to the compound MK571) (CysLT1R; [3]): 59%
5 | COC(=O)c1ccc(-c2ccc(OCc3ccc4ccccc4n3)cc2)cc1 [CHIN119, Methyl 4′-(quinolin-2-ylmethoxy)-[1,1′-biphenyl]-4-carboxylate] | 6.83 | 13.5 | 13 | 
6 | O=C(O)c1ccc(-c2ccc(OCc3ccc4ccccc4n3)cc2)cc1 [CHIN120, 4′-(quinolin-2-ylmethoxy)-[1,1′-biphenyl]-4-carboxylic Acid] | 12.76 | 36.74 | 43 | 
7 | OCc1cccc(-c2ccc(OCc3ccc4ccccc4n3)cc2)c1 [CHIN121, (4′-(quinolin-2-ylmethoxy)-[1,1′-biphenyl]-3-yl)methanol] | 8.22 | 64.9 |  | 

The next lines start with results.

Row | FXR (% of activity compared to 10 µM CDCA) (FXR [2]) [%] | GPBAR1 (% of activity compared to 10 µM TLCA) (human GPBAR1) [%] | inhibition at 10 µM (CysLT1R; [3]) [%] | Structure (SMILES) | further results
8 | 32.46 | 23 |  | COC(=O)c1cccc(OCc2ccc3ccccc3n2)c1 [CHIN104, Methyl 3-(Quinolin-2-ylmethoxy)Benzoate] | EC50 (FXR [1]): 9 µM
9 | 12.78 | 17.58 | 59 | COC(=O)c1cc(O)cc(OCc2ccc3ccccc3n2)c1 [CHIN107, methyl 3-hydroxy-5-(quinolin-2-ylmethoxy)benzoate] | IC50 (CysLT1R): > 10 µM
10 | 8.22 |  |  | O=C(O)c1cc(O)cc(OCc2ccc3ccccc3n2)c1 [CHIN108, 3-hydroxy-5-(quinolin-2-ylmethoxy)benzoic Acid] | 
11 | 5.92 |  | 26 | OCc1cc(O)cc(OCc2ccc3ccccc3n2)c1 [CHIN109, 3-(hydroxymethyl) -5-(quinolin-2-ylmethoxy)phenol] | 
12 | 8.9 | 82 | 109 | O=C(O)c1cccc(-c2ccc(OCc3ccc4ccccc4n3)cc2)c1 [CHIN117, 4′-(quinolin-2-ylmethoxy)-[1,1′-biphenyl]-3-carboxylic Acid] | CLint S9 fraction (S9 fraction): 6; aqueous solubility (Aqueous solubility): 66 µM (≈ 23.5 µg/mL); circulating white blood cell (WBC) values (wild-type C57/B16 mice): comparable to those found in untreated mice; reduction of ALT values compared to mice treated with APAP alone (wild-type C57/B16 mice): about 10 fold; reduction of AST values compared to mice treated with APAP alone (wild-type C57/B16 mice): about 10 fold; reduction of weight gain (male C57BL/6 mice; HFD-F diet 60 days): about 3 grams; hepatic steatosis, BMI and eWAT, BAT and liver weight (male C57BL/6 mice; HFD-F diet for 8 weeks): almost completely reversed the disease; AUC of OGTT (male C57BL/6 mice; HFD-F diet, after eight weeks): reduces the AUC of OGTT; ALT levels (male C57BL/6 mice; plasma, HFD-F diet): statistically reduces; AST levels (male C57BL/6 mice; plasma, HFD-F diet): statistically reduces; LDL levels (male C57BL/6 mice; plasma, HFD-F diet): statistically reduces; EC50 (human GPBAR1; dose-response 0.1-75 µM, read-out: GPBAR1 ECso): 4.6 µM; IC50 (CysLT1R): 5.67 µM
